Measured values taken from BigSolDB 2.1.

O=[N+]([O-])/N=C1\NCCN1Cc1ccc(Cl)nc1
Details | solubility (mole fraction)
in 1,2-dichloroethane, 299.96 K | 0.00987
in 1,2-dichloroethane, 302.87 K | 0.0108
in 1,2-dichloroethane, 304.97 K | 0.0116
in 1,2-dichloroethane, 310.08 K | 0.0142
in 1,2-dichloroethane, 314.14 K | 0.0161
in 1,2-dichloroethane, 317.43 K | 0.0183
in 1,2-dichloroethane, 321.31 K | 0.0213
in 1,2-dichloroethane, 325.67 K | 0.0243
in 1,2-dichloroethane, 328.74 K | 0.0271
in 1,2-dichloroethane, 331.34 K | 0.0309
in 1,2-dichloroethane, 333.75 K | 0.0345
in 1,2-dichloroethane, 336.91 K | 0.0392
in 1,2-dichloroethane, 339.95 K | 0.0442
in 1,2-dichloroethane, 342.81 K | 0.049
in 1,2-dichloroethane, 345.2 K | 0.0546
in 1,2-dichloroethane, 347.1 K | 0.0612
in 2-butanone, 293.07 K | 0.0159
in 2-butanone, 299.44 K | 0.0192
in 2-butanone, 302.54 K | 0.0213
in 2-butanone, 306.3 K | 0.0238
in 2-butanone, 308.85 K | 0.026
in 2-butanone, 311.24 K | 0.0281
in 2-butanone, 314.22 K | 0.0308
in 2-butanone, 318.19 K | 0.0346
in 2-butanone, 320.83 K | 0.0379
in 2-butanone, 323.87 K | 0.0419
in 2-butanone, 326.73 K | 0.046
in 2-butanone, 329.81 K | 0.0504
in 2-butanone, 332.97 K | 0.0573
in 2-butanone, 335.21 K | 0.0617
in 2-butanone, 337.54 K | 0.0678
in 2-butanone, 340.65 K | 0.0749
in 2-butanone, 343.2 K | 0.0823
in acetone, 294.64 K | 0.012
in acetone, 300.05 K | 0.0141
in acetone, 301.76 K | 0.0148
in acetone, 305.05 K | 0.0162
in acetone, 307.77 K | 0.0175
in acetone, 310.17 K | 0.0187
in acetone, 317.25 K | 0.0232
in acetone, 319.14 K | 0.0248
in acetone, 321.59 K | 0.0265
in acetone, 327.89 K | 0.0325
in acetone, 330.2 K | 0.0353
in chloroform, 292.04 K | 0.00848
in chloroform, 294.49 K | 0.00916
in chloroform, 298.22 K | 0.0102
in chloroform, 303.84 K | 0.0115
in chloroform, 307.04 K | 0.0123
in chloroform, 310.05 K | 0.0132
in chloroform, 314.03 K | 0.0143
in chloroform, 316.75 K | 0.0153
in chloroform, 319.07 K | 0.0167
in chloroform, 321.74 K | 0.0183
in chloroform, 324.64 K | 0.0198
in chloroform, 326.71 K | 0.0215
in chloroform, 330.16 K | 0.024
in dichloromethane, 293.97 K | 0.0132
in dichloromethane, 295.96 K | 0.0146
in dichloromethane, 298 K | 0.0157
in dichloromethane, 300.05 K | 0.0166
in dichloromethane, 302.6 K | 0.0177
in dichloromethane, 303.99 K | 0.0189
in dichloromethane, 305.96 K | 0.0199
in dichloromethane, 307.8 K | 0.0211
in dichloromethane, 309.6 K | 0.0223
in dichloromethane, 311.66 K | 0.0236
in dichloromethane, 313.14 K | 0.0248
in dichloromethane, 313.93 K | 0.0254
in ethanol, 298.69 K | 0.000502
in ethanol, 301.12 K | 0.000569
in ethanol, 305.66 K | 0.000794
in ethanol, 308.87 K | 0.001
in ethanol, 312.34 K | 0.00118
in ethanol, 315.96 K | 0.00136
in ethanol, 318.07 K | 0.00151
in ethanol, 320.74 K | 0.0017
in ethanol, 323.96 K | 0.00197
in ethanol, 327.54 K | 0.00225
in ethanol, 330.06 K | 0.00251
in ethanol, 333.57 K | 0.00289
in methanol, 293.79 K | 0.00102
in methanol, 295.38 K | 0.00111
in methanol, 299.81 K | 0.00136
in methanol, 302.15 K | 0.00156
in methanol, 305.86 K | 0.00179
in methanol, 309.32 K | 0.00211
in methanol, 312.62 K | 0.00247
in methanol, 315.38 K | 0.00283
in methanol, 320.59 K | 0.00361
in methanol, 323.37 K | 0.00413
in methanol, 328.11 K | 0.0053
in methanol, 330.75 K | 0.00598
in methanol, 333.34 K | 0.00676
in water, 302.76 K | 2.68e-05
in water, 308.62 K | 3.94e-05
in water, 314.75 K | 4.87e-05
in water, 324.15 K | 8.35e-05
in water, 329.34 K | 0.000119
in water, 330.75 K | 0.000132
in water, 334.52 K | 0.000169
in water, 340.44 K | 0.000231
in water, 344.57 K | 0.000287
in water, 346.87 K | 0.000323
in water, 348.94 K | 0.000363
